This is an account of results in ChEMBL document CHEMBL1201862, “PubChem BioAssay data set” (2004).

Among the test systems are 786-0; CAKI-1; CCRF-CEM; EKVX; KM-20L2; MOLT-4; Malme-3M; NCI-H226; OVCAR-4; SF-268; SF-295; SK-OV-3; SN12C; SNB-19; SR; UACC-257; UO-31; SNB-75.
What all share (assay): NCI anticancer screen, dose series, 48 h

SMILES strings stand for the structures.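 Assay format: 96-well plates, 48-hour exposure. Abbreviation: GI50, concentration required for 50% inhibition of growth.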 Activity calls are given as the source filed them. Rule as the data show it: active = GI50 up to about 1.1 µM and inactive = higher.

Regarding `CC(=O)/C(=C\c1cccc([N+](=O)[O-])c1)C(=O)Nc1ccccc1C`, the GI50 with 786-0 is > 100 µM (inactive); in the test with CAKI-1 it was > 100 µM (inactive); in the test with CCRF-CEM, 31.2 µM (inactive); in the test with EKVX, > 100 µM (inactive); with KM-20L2, > 100 µM (inactive); in the test with MOLT-4 it was 39.5 µM (inactive). The GI50 is > 100 µM (inactive) with Malme-3M; > 100 µM (inactive) in the test with NCI-H226; 56.4 µM (inactive) with OVCAR-4; > 100 µM (inactive) in the test with SF-268; > 100 µM (inactive) with SF-295; > 100 µM (inactive) in the test on SK-OV-3. The GI50 in the test with SN12C is > 100 µM (inactive); with SNB-19, 94.4 µM (inactive); with SR it was 33.6 µM (inactive); in the test with UACC-257 it was > 100 µM (inactive); in the test on UO-31, > 100 µM (inactive).
Turning to `C=CCC(C(=O)OC)C1(C(=O)OC)c2[nH]c3ccccc3c2CCN1Cc1ccccc1` (stereo unspecified), the GI50 is 19 µM (inactive) in the test with 786-0; 66.8 µM (inactive) in the test with CAKI-1; 29.8 µM (inactive) with CCRF-CEM; > 100 µM (inactive) in the test with EKVX; > 100 µM (inactive) in the test on KM-20L2; > 100 µM (inactive) with MOLT-4. Also, the GI50 was 51.8 µM (inactive) in the test with Malme-3M; 20.2 µM (inactive) with OVCAR-4; > 100 µM (inactive) with SF-268; 35.1 µM (inactive) in the test with SF-295; 89.9 µM (inactive) with SK-OV-3; > 100 µM (inactive) with SN12C. For the same molecule, the GI50 in the test with SNB-19 was > 100 µM (inactive); in the test with SNB-75, > 100 µM (inactive); in the test with SR, 6.68 µM (inactive); in the test with UO-31, 53.3 µM (inactive).
`CNCC(=O)Nc1ccc2c(c1)C(=O)c1ccc(NC(=O)CNC)cc1C2=O`: the GI50 with 786-0 is 4.42 µM (inactive); in the test on CAKI-1, 5.65 µM (inactive); in the test with CCRF-CEM, 2.74 µM (inactive); in the test on KM-20L2, 5.3 µM (inactive); in the test on MOLT-4, 2.52 µM (inactive); in the test with Malme-3M, 3.27 µM (inactive). In addition, the GI50 in the test with NCI-H226 was 7.57 µM (inactive); in the test with OVCAR-4, 1.91 µM (inactive); in the test on SF-295 it was 5.3 µM (inactive); in the test with SK-OV-3, 1.62 µM (inactive); with SN12C, 3.1 µM (inactive); with SNB-75 it was 13.6 µM (inactive). Further, the results for the GI50 in the test with SR, with UACC-257 and with UO-31 were 1.96 µM (inactive), 4.36 µM (inactive) and 11.8 µM (inactive), respectively.
`COc1ccc(/C=c2/sc3n(c2=O)NC2(CCC(C)CC2)NN=3)cc1` (stereo unspecified): the GI50 in the test with 786-0, in the test with CAKI-1, with CCRF-CEM, in the test with EKVX, in the test on KM-20L2 and in the test with MOLT-4 was > 100 µM (inactive) in each case. Moreover, the GI50 in the test on Malme-3M is > 100 µM (inactive); with NCI-H226, > 100 µM (inactive); with OVCAR-4 it was 52.5 µM (inactive); in the test with SF-268, > 100 µM (inactive); with SF-295 it was > 100 µM (inactive); in the test on SK-OV-3 it was > 100 µM (inactive). Further, the GI50 with SN12C, with SNB-19, with SNB-75, in the test with SR and with UO-31 was > 100 µM (inactive) in each case.
Turning to `O=C(COC(=O)c1cccc2c(=O)c3ccccc3[nH]c12)Nc1ccc(S(=O)(=O)Nc2ncccn2)cc1`, the GI50 with 786-0 is 42.2 µM (inactive); in the test with CAKI-1, 79.3 µM (inactive); with CCRF-CEM it was 27.5 µM (inactive); with EKVX it was 64.1 µM (inactive); in the test with KM-20L2, 65.9 µM (inactive); with MOLT-4, 28.4 µM (inactive). The GI50 with Malme-3M was 49.5 µM (inactive); with NCI-H226, > 100 µM (inactive); in the test with OVCAR-4 it was 59.2 µM (inactive); with SF-268, 37 µM (inactive); with SF-295, 58.9 µM (inactive); with SK-OV-3, 39.5 µM (inactive). Further, the GI50 in the test on SN12C was 59.6 µM (inactive); in the test on SNB-19, 38.8 µM (inactive); in the test with SNB-75, 30 µM (inactive); with SR, 29 µM (inactive); in the test on UACC-257, 66.1 µM (inactive); with UO-31, > 100 µM (inactive).
As to `O=C(Nc1cccc(Cc2cccc(NC(=O)c3ccccc3)c2)c1)c1ccccc1`, the GI50 is 26.9 µM (inactive) with 786-0; 16.9 µM (inactive) in the test with CAKI-1; > 100 µM (inactive) in the test on CCRF-CEM; 23.3 µM (inactive) in the test on EKVX; > 100 µM (inactive) with KM-20L2; > 100 µM (inactive) in the test with MOLT-4. Moreover, the GI50 is 23.3 µM (inactive) in the test on Malme-3M; 29 µM (inactive) with NCI-H226; 6.79 µM (inactive) in the test on OVCAR-4; 34 µM (inactive) in the test on SF-268; 16.5 µM (inactive) with SF-295; 25.8 µM (inactive) in the test with SK-OV-3. Moreover, the GI50 with SN12C was 19.5 µM (inactive); with SNB-19 it was 25.4 µM (inactive); in the test on SNB-75 it was 10.5 µM (inactive); in the test with SR, > 100 µM (inactive); in the test with UACC-257, 29.8 µM (inactive); in the test on UO-31 it was 12.7 µM (inactive).
In the case of `O=S(=O)(O)C(O)/C=C/c1ccccc1` (stereo unspecified), the GI50 was > 100 µM (inactive) with 786-0; > 100 µM (inactive) with CAKI-1; 52.5 µM (inactive) in the test with CCRF-CEM; > 100 µM (inactive) in the test on EKVX; > 100 µM (inactive) in the test on KM-20L2; > 100 µM (inactive) with MOLT-4. For the same molecule, the GI50 in the test on Malme-3M, in the test with NCI-H226, in the test on OVCAR-4, in the test with SF-268, with SF-295 and in the test with SK-OV-3 was > 100 µM (inactive) each time. Also, the GI50 with SN12C is > 100 µM (inactive); in the test on SNB-19, > 100 µM (inactive); with SNB-75, > 100 µM (inactive); in the test on SR, 26.6 µM (inactive); in the test with UACC-257, > 100 µM (inactive); in the test with UO-31 it was > 100 µM (inactive).
As to `Cc1c(Cl)ccc2c1NC(=O)C2(O)CC(=O)c1cccc2ccccc12` (stereo unspecified), the GI50 is 73.6 µM (inactive) with 786-0; 39.4 µM (inactive) in the test on CAKI-1; 40.3 µM (inactive) in the test on CCRF-CEM; > 100 µM (inactive) with EKVX; 51.8 µM (inactive) in the test on KM-20L2; 35.2 µM (inactive) with MOLT-4. Further, the GI50 is > 100 µM (inactive) with Malme-3M; > 100 µM (inactive) in the test with NCI-H226; 26.2 µM (inactive) with OVCAR-4; > 100 µM (inactive) in the test on SF-268; > 100 µM (inactive) in the test on SF-295; > 100 µM (inactive) with SK-OV-3. For the same molecule, the GI50 in the test with SN12C was > 100 µM (inactive); with SNB-19, 90.8 µM (inactive); with SNB-75 it was > 100 µM (inactive); with SR, 24.1 µM (inactive); in the test with UACC-257 it was 98.9 µM (inactive); with UO-31, > 100 µM (inactive).
Regarding `O=C(OCN1C(=O)C2C3C=CC(C2C1=O)C1C2C(=O)N(COC(=O)C4CCCN4)C(=O)C2C31)C1CCCN1` (stereo unspecified), the GI50 in the test on 786-0 is 35.6 µM (inactive); in the test with CAKI-1 it was > 86.9 µM (inactive); in the test on CCRF-CEM, 21.8 µM (inactive); in the test with EKVX, > 100 µM (inactive); with KM-20L2, 64.1 µM (inactive); in the test on MOLT-4, 32.3 µM (inactive). The GI50 in the test with Malme-3M was > 100 µM (inactive); with NCI-H226, > 100 µM (inactive); in the test on OVCAR-4 it was > 58.3 µM (inactive); in the test with SF-268, > 51.3 µM (inactive); in the test on SF-295, > 82.6 µM (inactive); in the test with SK-OV-3, > 100 µM (inactive). Also, the GI50 in the test on SN12C was > 72.3 µM (inactive); in the test on SNB-19, > 100 µM (inactive); with SNB-75 it was > 82.6 µM (inactive); with SR it was < 0.01 µM (active); with UACC-257, > 79.4 µM (inactive); in the test with UO-31 it was > 100 µM (inactive).
`Cc1ccc(-c2cc(-c3ccco3)c(C#N)c(=O)n2C2OC(OC(=O)c3ccccc3)C(OC(=O)c3ccccc3)C2OC(=O)c2ccccc2)cc1` (stereo unspecified): the GI50 in the test on 786-0 was 81.3 µM (inactive); in the test on CAKI-1, > 100 µM (inactive); in the test with CCRF-CEM it was > 100 µM (inactive); with EKVX, > 100 µM (inactive); in the test on KM-20L2 it was > 100 µM (inactive); with MOLT-4 it was > 100 µM (inactive). Moreover, the GI50 was > 100 µM (inactive) with Malme-3M; 81.3 µM (inactive) in the test with SF-268; 59 µM (inactive) in the test on SF-295; > 100 µM (inactive) with SK-OV-3; > 100 µM (inactive) in the test on SN12C; > 100 µM (inactive) in the test on SNB-75. The GI50 with SR and with UO-31 was > 100 µM (inactive) each time.
For the molecule `CC1(C)C=N[N+]2(C)C3C=CC(CC3)C12` (stereo unspecified), the GI50 in the test with 786-0, in the test with CAKI-1, in the test on CCRF-CEM, in the test with EKVX, in the test with KM-20L2 and in the test on MOLT-4 was > 100 µM (inactive) in each case. The GI50 with Malme-3M, with NCI-H226, in the test with SF-268, in the test on SF-295, with SK-OV-3 and in the test with SN12C was > 100 µM (inactive) throughout. Also, the GI50 in the test with SNB-19, with SNB-75, with SR, in the test on UACC-257 and in the test on UO-31 was > 100 µM (inactive) each time.
